The text below walks through data of BindingDB's records for doi:10.7270/Q21V5CBG (NMMLSC, 2007).

Molecules are shown by their SMILES.

The experiment concerns the target T1, fMet-Leu-Phe receptor (Homo sapiens, UniProt P21462).
T1 sequence (P21462 whole entry): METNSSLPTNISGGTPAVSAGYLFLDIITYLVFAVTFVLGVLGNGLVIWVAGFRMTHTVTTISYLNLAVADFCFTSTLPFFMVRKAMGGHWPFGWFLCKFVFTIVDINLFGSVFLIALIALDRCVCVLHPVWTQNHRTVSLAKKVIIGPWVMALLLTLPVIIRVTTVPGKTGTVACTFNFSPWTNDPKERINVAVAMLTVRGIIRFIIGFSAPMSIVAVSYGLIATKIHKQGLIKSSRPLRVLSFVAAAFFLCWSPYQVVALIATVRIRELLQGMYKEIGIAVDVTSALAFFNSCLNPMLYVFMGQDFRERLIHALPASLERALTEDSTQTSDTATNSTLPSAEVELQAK
Briefly: human FPR1 ligand displacement potency – cell-based, flow cytometry, IC50, selectivity assay for FPRL1 ligand SAR project, dose response (AID 762). For orientation: Flow cytometry measures light scatter and fluorescence of single cells or particles in a stream.
The term Ki denotes the dissociation constant of the complex between target and ligand, obtained from inhibition or displacement. The low end stands for a stronger hold on the target, the high end for a looser hold on the target. With `O=C(N1CCN(c2nc(-c3ccccc3)c3ccccc3n2)CC1)C(F)(F)F` [2,2,2-trifluoro-1-[4-(4-phenyl-2-quinazolinyl)-1-piperazinyl]ethanone], the Ki was greater than 37.6 µM. In turn, `COc1ccc(-c2cc(C(F)(F)F)nc(N3CCN(C(c4ccccc4)c4ccccc4)CC3)n2)cc1OC` [2-(4-benzhydrylpiperazin-1-yl)-4-(3,4-dimethoxyphenyl)-6-(trifluoromethyl)pyrimidine] had a Ki greater than 27.2 µM. With `COc1ccc(-c2cc(C(F)(F)F)nc(N3CCN(Cc4ccccc4)CC3)n2)cc1OC` [2-(4-benzylpiperazin-1-yl)-4-(3,4-dimethoxyphenyl)-6-(trifluoromethyl)pyrimidine], the Ki is greater than 31.7 µM. Regarding `COc1ccc(-c2cc(C(F)(F)F)nc(N3CCN(c4ccccc4)CC3)n2)cc1OC` [4-(3,4-dimethoxyphenyl)-2-(4-phenyl-1-piperazinyl)-6-(trifluoromethyl)pyrimidine], the Ki was greater than 32.7 µM. With `CCOC(=O)N1CCN(c2nc(-c3ccc(OC)c(OC)c3)cc(C(F)(F)F)n2)CC1` [4-[4-(3,4-dimethoxyphenyl)-6-(trifluoromethyl)-2-pyrimidinyl]-1-piperazinecarboxylic acid ethyl ester], the Ki was greater than 33 µM. To `COc1ccc(-c2cn3cccnc3n2)cc1NC(=O)C1CC1` [MLS000045944] belongs greater than 47.2 µM. In turn, `COc1ccc(-c2cn3cccnc3n2)cc1NC(=O)C1CCCC1` [MLS000045945] displayed a Ki greater than 43.3 µM.

`COc1ccc(CC(=O)Nc2cc(-c3cn4cccnc4n3)ccc2OC)cc1` [N-(5-imidazo[1,2-a]pyrimidin-2-yl-2-methoxy-phenyl)-2-(4-methoxyphenyl)acetamide] had a Ki greater than 37.4 µM. In turn, `COc1ccc(-c2cn3cccnc3n2)cc1NC(=O)C(C)C` [N-(5-imidazo[1,2-a]pyrimidin-2-yl-2-methoxy-phenyl)-2-methyl-propanamide] yielded a Ki greater than 46.9 µM.

As to `CCC(=O)Nc1cc(-c2cn3cccnc3n2)ccc1OC` [N-(5-imidazo[1,2-a]pyrimidin-2-yl-2-methoxy-phenyl)propanamide], the inhibition constant Ki is greater than 49.1 µM.
